Data on 17 compounds can be found in ChEMBL document CHEMBL3244266, “Potential antiarthritic agents. 2. Benzoylacetonitriles and beta-aminocinnamonitriles” (J Med Chem, 1979).

Activity calls are given as the source filed them. No cut-off for these calls is given here.

The species entered for data set [1] is Rattus norvegicus. As to the kind of experiment: Antiinflammatory activity against adjuvant-induced arthritis in rat assessed as inhibition of swelling. The format is functional, organism-based.
In data set [2] the test system is Rattus norvegicus. Briefly: Ulcerogenicity in rat at 800 mg/kg administered daily. Type of data set: toxicity, organism-based. Further details: dose 800 mg/kg. The settings on record: in vivo.
For data set [3], the system named is Rattus norvegicus. As to the kind of experiment: Antiinflammatory activity against adjuvant-induced arthritis rat model assessed as inhibition of swelling at 25 mg/kg, po measured on day 14 (reference value: 0%). The format is functional. The settings on record: 336 h.
The subject of data set [4] is Rattus norvegicus. Briefly: Antiinflammatory activity against carrageenin-induced edema in rat. Type of data set: functional, organism-based. On the technique in general: Carrageenan injected into the paw causes an acute inflammation.
The species named for data set [5] is Cavia porcellus. As to the kind of experiment: Antiinflammatory activity against UV-induced erythema in guinea pig. The format is functional, organism-based.
Data set [6] concerns Rattus norvegicus. Briefly: Antiinflammatory activity against adjuvant-induced arthritis rat model assessed as inhibition of swelling at 50 mg/kg, po measured on day 21 (reference value: 0%). Type of data set: functional. Particulars: 504 h.
The subject of data set [7] is Rattus norvegicus. As to the kind of experiment: Antiinflammatory activity against adjuvant-induced arthritis rat model assessed as inhibition of swelling at 25 mg/kg, po measured on day 21 (reference value: 0%). The format is functional. Particulars: 504 h.
Data set [8] concerns Rattus norvegicus. As to the kind of experiment: Antiinflammatory activity against adjuvant-induced arthritis rat model assessed as inhibition of swelling at 100 mg/kg, po measured on day 14 (reference value: 0%). Type of data set: functional. The settings on record: 336 h.
Data set [9] deals with Rattus norvegicus. Briefly: Antiinflammatory activity against adjuvant-induced arthritis rat model assessed as inhibition of swelling at 100 mg/kg, po measured on day 21 (reference value: 0%). Type of data set: functional. Particulars: 504 h.
Data set [10] relates to Rattus norvegicus. As to the kind of experiment: Antiinflammatory activity against adjuvant-induced arthritis rat model assessed as inhibition of swelling at 50 mg/kg, po measured on day 14 (reference value: 0%). The format is functional. The settings on record: 336 h.
The subject of data set [11] is Rattus norvegicus. As to the kind of experiment: Antiinflammatory activity against adjuvant-induced arthritis rat model assessed as inhibition of swelling at 2 mg/kg, po measured on day 14 (reference value: 0%). The format is functional. The settings on record: 336 h.
Data set [12] concerns Rattus norvegicus. Briefly: Antiinflammatory activity against adjuvant-induced arthritis rat model assessed as inhibition of swelling at 0.5 mg/kg, po measured on day 14 (reference value: 0%). The format is functional. Particulars: 336 h.
Data set [13] concerns Rattus norvegicus. As to the kind of experiment: Antiinflammatory activity against adjuvant-induced arthritis rat model assessed as inhibition of swelling at 1 mg/kg, po measured on day 21 (reference value: 0%). Type of data set: functional. The settings on record: 504 h.
Data set [14] concerns Rattus norvegicus. As to the kind of experiment: Antiinflammatory activity against adjuvant-induced arthritis rat model assessed as inhibition of swelling at 0.5 mg/kg, po measured on day 21 (reference value: 0%). The format is functional. Particulars: 504 h.
The subject of data set [15] is Rattus norvegicus. As to the kind of experiment: Antiinflammatory activity against adjuvant-induced arthritis rat model assessed as inhibition of swelling at 2 mg/kg, po measured on day 21 (reference value: 0%). Type of data set: functional. The settings on record: 504 h.
Data set [16] relates to Rattus norvegicus. Briefly: Antiinflammatory activity against adjuvant-induced arthritis rat model assessed as inhibition of swelling at 1 mg/kg, po measured on day 14 (reference value: 0%). The settings on record: 336 h. Type of data set: functional.
In data set [17] the test system is Rattus norvegicus. Briefly: Antiinflammatory activity against adjuvant-induced arthritis rat model assessed as inhibition of swelling at 200 mg/kg, po measured on day 14 (reference value: 0%). Type of data set: functional. The settings on record: 336 h.
For data set [18], the system named is Rattus norvegicus. As to the kind of experiment: Antiinflammatory activity against adjuvant-induced arthritis rat model assessed as inhibition of swelling at 200 mg/kg, po measured on day 21 (reference value: 0%). The format is functional. The settings on record: 504 h.
For data set [19], the species on record is Cavia porcellus. Briefly: Inhibition of prostaglandin synthetase in guinea pig lung assessed as net production of prostaglandin-like activity. Particulars: tested as the 14C-labelled form.
The test system of data set [20] is Plasma. As to the kind of experiment: Drug recovery in rat plasma assessed as total radioactivity at 50 mg/kg, po measured over 7-day period by TLC/HPLC analysis. Type of data set: ADME, organism-based. Also on record: dose 50 mg/kg, route oral. Particulars: in vivo.
A short description of data set [21]: Drug recovery in rat urine assessed as total radioactivity at 50 mg/kg, po measured after 24 hrs by TLC/HPLC analysis. Also on record: dose 50 mg/kg, route oral. The format is ADME, organism-based. Particulars: in vivo.
The mark [22] stands for this setting: tested as the 14C-labelled form.

On to `N#CCC(=O)c1cccc(F)c1`, for which the result in [1] was Active.
What is called inhibition in vivo is the change of the read-out against control, counted positive when it falls. Consider `N#CCC(=O)c1ccsc1`, for which, in data set [2], the Activity entry was “Non-toxic”. The inhibition in vivo at 25 mg/kg is 52% in data set [3] and 31% in data set [7]. Besides, the result in data set [4] and in data set [5] was inactive. The figures for the inhibition in vivo at 50 mg/kg in data set [6] and in [10] were 40% and 55%, respectively. Besides, the inhibition in vivo at 100 mg/kg is 46% in data set [8] and 29% in [9].
Regarding `N#C/C=C(\N)c1cccc(F)c1`, the outcome in data set [1] was Active.
As for `COc1ccc2c(c1)c(CC(=O)O)c(C)n2C(=O)c1ccc(Cl)cc1` [INDOMETHACIN], the inhibition in vivo at 2 mg/kg is 68% in data set [11] and 24% in [15]. Further, the inhibition in vivo at 0.5 mg/kg in data set [12] worked out at 40%; in [14], 20%. In addition, the inhibition in vivo at 1 mg/kg in data set [13] was found to be 19%; in data set [16], 46%.
Take `N#C/C=C(\N)c1ccc(F)cc1`: in data set [2], the Activity entry was “Non-toxic”. In addition, the inhibition in vivo at 25 mg/kg in data set [3] was 26%; in [7], 14%. For the same compound, the outcome in [4] and in data set [5] was inactive. Moreover, the inhibition in vivo at 50 mg/kg in [6] was determined as 25%; in data set [10], 43%. Also, the inhibition in vivo at 100 mg/kg in [8] was 53%; in [9] it was 29%.
Regarding `N#CCC(=O)c1ccc(F)cc1`, in [2], the Activity result was “Non-toxic”. Besides, the inhibition in vivo at 25 mg/kg in data set [3] was found to be 33%; in data set [7], 17%. Further, the outcome in data set [4] and in data set [5] was inactive. Besides, the figures for the inhibition in vivo at 50 mg/kg in data set [6] and in data set [10] were 37% and 56%, respectively. For the same compound, the inhibition in vivo at 100 mg/kg in [8] was 46%; in data set [9], 32%.
In the case of `N#C/C=C(\N)c1cccs1`, in [2], the Activity entry is recorded as “Non-toxic”. In addition, the results for the inhibition in vivo at 25 mg/kg in [3] and in data set [7] were 35% and 10%, respectively. Moreover, the outcome in data set [4] and in data set [5] was inactive. Besides, the inhibition in vivo at 50 mg/kg amounted to 23% in data set [6] and 44% in data set [10]. The inhibition in vivo at 100 mg/kg in data set [8] came to 49%; in data set [9], 27%.
As to `N#C/C=C(\N)c1ccccc1`, the inhibition in vivo at 25 mg/kg in data set [3] came to 39%; in [7], 25%. Also, the result in data set [4] and in data set [5] was Active. Moreover, the inhibition in vivo at 50 mg/kg stood at 52% in data set [6] and 58% in data set [10]. Also, the values for the inhibition in vivo at 100 mg/kg in [8] and in data set [9] were 65% and 54%, respectively.
Consider `N#CCC(=O)c1cccs1`, for which the inhibition in vivo at 200 mg/kg in [17] stood at 72%; in data set [18], 29%. The Activity entry in data set [2] is “Non-toxic”. Moreover, the outcome in [4] and in [5] was inactive. In addition, the values for the inhibition in vivo at 50 mg/kg in [6] and in data set [10] were 18% and 46%, respectively. Besides, the inhibition in vivo at 100 mg/kg is 58% in data set [8] and 42% in data set [9].
In the case of `O=C(O)C(O)C(O)c1ccccc1` (centres undefined), the outcome in [4] (setting [22]) and in [1] (setting [22]) was inactive.
Take `N#CCC(O)c1ccccc1` (centres undefined): the result in data set [4] (setting [22]) and in data set [1] (setting [22]) was inactive.
With `O=C(O)CNC(=O)c1ccccc1`, the outcome in data set [4] (setting [22]) and in data set [1] (setting [22]) was inactive.
As for `O=C(O)CC(=O)c1ccccc1`, the outcome in data set [4] (setting [22]) and in data set [1] (setting [22]) was inactive.
As for `N#CCC(=O)c1ccccc1`, the Activity entry in data set [2] is “Non-toxic”. The inhibition in vivo at 25 mg/kg amounted to 54% in data set [3] and 33% in data set [7]. Further, the outcome in data set [4] and in data set [5] was inactive. Besides, the inhibition in vivo at 50 mg/kg is 42% in data set [6] and 51% in data set [10]. Also, the inhibition in vivo at 100 mg/kg in [8] turned out to be 63%; in data set [9] it was 48%. Also, in [19], the inhibition result is “Active”.
For `N#CC[14C](=O)c1ccccc1`, the values for the Drug recovery in data set [20] and in data set [21] were 93.3% and 81.7%, respectively.
Turning to `N#C/C=C(\N)c1ccsc1`, the Activity result in [2] was “Non-toxic”. Also, the inhibition in vivo at 25 mg/kg was 37% in data set [3] and 20% in data set [7]. The outcome in data set [4] and in data set [5] was inactive. For the same compound, the inhibition in vivo at 50 mg/kg was 27% in data set [6] and 48% in data set [10]. The figures for the inhibition in vivo at 100 mg/kg in data set [8] and in [9] were 58% and 33%, respectively.
On to `N#CCC(=O)c1ccccc1F`, for which the Activity result in [2] is given as “Non-toxic”. Also, the inhibition in vivo at 25 mg/kg in data set [3] came to 54%; in [7], 33%. Further, the outcome in data set [4] and in [5] was inactive. The values for the inhibition in vivo at 50 mg/kg in data set [6] and in [10] were 42% and 51%, respectively. Further, the inhibition in vivo at 100 mg/kg in [8] was 63%; in [9] it was 48%.
